Reference: ChEMBL document CHEMBL5523741, “Development of an Orally Bioavailable LCK PROTAC Degrader as a Potential Therapeutic Approach to T-Cell Acute Lymphoblastic Leukemia” (J Med Chem, 2024)
≈ marks a conversion by molar mass, not a printed value.

Tests used:
[1] = Aqueous solubility of the compound incubated for 18 hrs by UPLC-SQDMS; type: physicochemical; details: buffer
[2] = Metabolic stability in mouse liver microsomes assessed as half life in presence of NADPH by UPLC-MS/MS analysis; type: ADME, Microsome
[3] = target: T1, Protein cereblon/Tyrosine-protein kinase Lck (Homo sapiens, UniProt P06239+Q96SW2); experiment: PROTAC activity at HiBit-tagged LCK/CRBN in human KOPT-K1 cells assessed as induction of LCK degradation incubated for 6 hrs by Nano-Glo HiBiT assay relative to control; type: cell-based
Target sequence in this assay (P06239 2-509 limits assumed): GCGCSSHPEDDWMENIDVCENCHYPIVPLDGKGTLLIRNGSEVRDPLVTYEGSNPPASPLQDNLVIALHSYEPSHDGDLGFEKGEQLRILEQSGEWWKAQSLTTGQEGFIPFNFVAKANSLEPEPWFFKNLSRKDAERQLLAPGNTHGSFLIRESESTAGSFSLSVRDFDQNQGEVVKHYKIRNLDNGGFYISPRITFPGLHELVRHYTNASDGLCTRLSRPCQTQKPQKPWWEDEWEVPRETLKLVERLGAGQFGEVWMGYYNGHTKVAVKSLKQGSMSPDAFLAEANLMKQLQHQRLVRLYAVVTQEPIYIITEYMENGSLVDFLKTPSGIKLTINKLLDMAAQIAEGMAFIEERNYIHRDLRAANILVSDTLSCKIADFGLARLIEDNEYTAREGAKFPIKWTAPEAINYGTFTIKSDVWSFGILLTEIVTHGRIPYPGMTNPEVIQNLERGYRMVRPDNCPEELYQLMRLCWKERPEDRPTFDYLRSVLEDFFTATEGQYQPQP
Target sequence in this assay (Q96SW2 whole entry partner): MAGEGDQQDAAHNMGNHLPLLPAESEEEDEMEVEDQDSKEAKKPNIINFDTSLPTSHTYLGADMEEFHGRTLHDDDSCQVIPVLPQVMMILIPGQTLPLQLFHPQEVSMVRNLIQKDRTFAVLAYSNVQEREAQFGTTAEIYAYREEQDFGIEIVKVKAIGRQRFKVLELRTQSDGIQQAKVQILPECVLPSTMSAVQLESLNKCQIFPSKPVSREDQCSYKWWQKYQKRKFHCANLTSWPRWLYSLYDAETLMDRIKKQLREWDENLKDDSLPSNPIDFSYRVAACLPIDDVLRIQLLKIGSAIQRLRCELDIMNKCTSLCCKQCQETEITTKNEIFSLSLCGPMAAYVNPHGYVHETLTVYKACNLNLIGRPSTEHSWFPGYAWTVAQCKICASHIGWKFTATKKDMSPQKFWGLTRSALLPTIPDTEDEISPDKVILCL

[4] = Apparent permeability of compound across apical to basolateral side in human Caco-2 cells; type: ADME, cell-based
[5] = Oral bioavailability in CD-1 mouse at 10 mg/kg measured up to 24 hrs by LC-MS/MS analysis; type: ADME, organism-based; details: in vivo
[6] = Stability in CD-1 mouse plasma assessed as half life; type: ADME, cell-free
[7] = Apparent permeability of compound across basolateral to apical side in human Caco-2 cells; type: ADME, cell-based
[8] = Efflux ratio of apparent permeability across basolateral to apical over apical to basolateral in human Caco-2 cells; type: ADME, cell-based
[9] = Clearance in CD-1 mouse at 3 mg/kg, iv measured up to 24 hrs by LC-MS/MS analysis; type: ADME, organism-based; details: in vivo
[10] = target: T1, Protein cereblon/Tyrosine-protein kinase Lck; experiment: PROTAC activity at HiBit-tagged LCK/CRBN in human KOPT-K1 cells assessed as induction of LCK degradation incubated for 6 hrs by Nano-Glo HiBiT assay; type: cell-based
Target sequence in this assay (P06239 whole entry): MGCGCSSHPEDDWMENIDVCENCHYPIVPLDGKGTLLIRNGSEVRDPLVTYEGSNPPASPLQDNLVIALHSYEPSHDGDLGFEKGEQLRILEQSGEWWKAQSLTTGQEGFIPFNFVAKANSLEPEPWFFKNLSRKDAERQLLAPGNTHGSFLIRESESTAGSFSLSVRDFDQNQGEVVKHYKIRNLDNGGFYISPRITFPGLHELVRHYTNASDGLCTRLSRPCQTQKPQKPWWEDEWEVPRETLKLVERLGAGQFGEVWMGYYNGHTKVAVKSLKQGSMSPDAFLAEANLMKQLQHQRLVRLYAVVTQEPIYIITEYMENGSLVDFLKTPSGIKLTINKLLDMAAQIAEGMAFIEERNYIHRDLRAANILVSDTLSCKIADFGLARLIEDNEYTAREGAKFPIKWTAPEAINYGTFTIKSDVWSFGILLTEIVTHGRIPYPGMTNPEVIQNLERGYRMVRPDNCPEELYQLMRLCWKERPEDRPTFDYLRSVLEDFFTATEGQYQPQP
Target sequence in this assay (Q96SW2 whole entry): as the sequence (Q96SW2 whole entry partner) above

[11] = Drug concentration in CD-1 mouse plasma at 30 mg/kg, po measured after 4 hrs by UPLC-MS/MS analysis; type: ADME, organism-based

solubility at 18 h [1] [µM]	half-life [2] [h]	Emax [3] [%]	Papp A→B [4] [×10⁻⁶ cm/s]	bioavailability [5] [%]	half-life [6] [h]	Papp B→A [7] [×10⁻⁶ cm/s]	efflux ratio [8]	clearance [9] [mL/min/kg]	DC50 [10] [nM]	concentration at 4 h [11] [ng/mL]	SMILES
0.19 (≈ 0.152 µg/mL)	0.32	90									Cc1nc(Nc2ncc(C(=O)Nc3c(C)cccc3Cl)s2)cc(N2CCN(CCCC(=O)N3CC4CC3CN4c3ccc(C4CCC(=O)NC4=O)cc3)CC2)n1 (stereo not given)
	2.2	< 60									Cc1nc(Nc2ncc(C(=O)Nc3c(C)cccc3Cl)s2)cc(N2CCC3(CCN(c4ccc(C5CCC(=O)NC5=O)cc4)CC3)CC2)n1 (stereo not given)
14.5 (≈ 11.2 µg/mL)	2.6	83									Cc1nc(Nc2ncc(C(=O)Nc3c(C)cccc3Cl)s2)cc(N2CCN(CCCN3CC4CC3CN4c3ccc(C4CCC(=O)NC4=O)cc3)CC2)n1 (stereo not given)
7.54 (≈ 5.82 µg/mL)	10	84	1.15	3.1	30.1	13.3	11.6	169	4.48		Cc1nc(Nc2ncc(C(=O)Nc3c(C)cccc3Cl)s2)cc(N2CCN(CCCN3CCN(Cc4ccc(C5CCC(=O)NC5=O)cc4)CC3)CC2)n1 (stereo not given)
	2.1	< 60	1.93		3.84	12.7	6.56			207	Cc1nc(Nc2ncc(C(=O)Nc3c(C)cccc3Cl)s2)cc(N2CCC(N(C)C3CCN(c4ccc(C5CCC(=O)NC5=O)cc4)CC3)CC2)n1 (stereo not given)
1.99 (≈ 1.28 µg/mL)	1.23	< 60									Cc1nc(Nc2ncc(C(=O)Nc3c(C)cccc3Cl)s2)cc(N2CCN(Cc3ccc(C4CCC(=O)NC4=O)cc3)CC2)n1 (stereo not given)
0.65 (≈ 0.574 µg/mL)	0.67	84									Cc1nc(Nc2ncc(C(=O)Nc3c(C)cccc3Cl)s2)cc(N2CCN(CCCC(=O)N3CCC(CN4CCN(c5ccc(C6CCC(=O)NC6=O)cc5)CC4)CC3)CC2)n1 (stereo not given)
2.57 (≈ 1.94 µg/mL)	10	87	1.04		4.98	9.82				54	Cc1nc(Nc2ncc(C(=O)Nc3c(C)cccc3Cl)s2)cc(N2CCN(CCCN3CCC(c4ccc(C5CCC(=O)NC5=O)cc4)CC3)CC2)n1 (stereo not given)
15.2 (≈ 12.1 µg/mL)	0.54	88	1.32		4.25	1.55				1.19	Cc1nc(Nc2ncc(C(=O)Nc3c(C)cccc3Cl)s2)cc(N2CCN(C(=O)CCCN3CC4CC3CN4c3ccc(C4CCC(=O)NC4=O)cc3)CC2)n1 (stereo not given)
